Tests used:
Assay type in all cases: cell-based, mouse
[1] = test system: fetal liver erythroid progenitor (FLEP) cells; experiment: Colony forming assays of magnetically depleted fetal liver cells (Table S1)
Method: The negatively enriched cell populations were subjected to colony forming assays under two different conditions. […] CFU-E colonies were counted 3 days later. […] These cells were cultured 8-9 days before late BFU-E, early BFU-E, CFU-G/M/Mk (granulocyte, monocyte, megakaryocyte), and CFU-GEMM (granulocyte, erythrocyte, monocyte, megakaryocyte) colonies were scored. BFU-Es consisting of a cluster of only 5-20 CFU-Es were scored as late, while larger BFU-Es were scored as early. 2,7-fluorenediamine was used to stain hemoglobin-containing colonies in the plates. […] Standard deviation between experiments is shown in parenthesis.
The first step towards enrichment of BFU-E and CFU-E cells was to remove more mature blood cells from single cell suspensions of fetal livers by magnetic column depletion. We stained fetal liver cells with a panel of biotin labeled anti-lineage (Lin) antibodies (Ter119, B220, Mac-1, CD3 and Gr-1), followed by anti-biotin tetramer and magnetic colloid labeling. All positive cells were depleted using magnetic columns.
(§1) Colonies were scored after 3 days. […] The number of hemoglobinized early BFU-E and late BFU-E colonies was determined after 8-9 days following staining with 2,7-Diaminofluorene (Sigma Chemical, St. Louis, Mo.).

BFU-E cells = experiment: CFU-E and BFU-E colony forming assays of BFU-E cells cultured in SFELE medium; conditions: for Total colony numbers from 1,000 "BFU-E" cells: CFU-E 1 cluster / Total colony numbers from 1,000 "BFU-E" cells: large BFU-E >20 clusters / Total colony numbers from 1,000 "BFU-E" cells: small BFU-E 5-20 clusters: CD24 and CD71 10% low BFU-E cells, SFELE, 100 nM Dex and/or 333 μM DMOG; for Total colony numbers from 1000 BFU-E cells: Large BFU-E / Total colony numbers from 1000 BFU-E cells: Single CFU-E / Total colony numbers from 1000 BFU-E cells: Small BFU-E: CD71 10% low BFU-E cells, SFELE with 100 nM Dex
Method: Dexamethasone prevents BFU-E cell exhaustion, which allows more CFU-E cells to be formed. […] (A) The total number of cells formed from 1000 BFU-E cells at different time points. […] Standard deviation between four separate biological experiments is shown in parenthesis (n/d=not determined).
At daily intervals colony assays were performed (Table 2). As in the experiment in FIG. 3, for the first three days the total number of cells increased at the same rate in all cultures.
as §1

CFU-E cells = experiment: Colony forming assays of sorted CFU-E fractions (Table S2)
Description: Separation of BFU-E and CFU-E cells by expression of CD71, CD24a or both CD71 and CD24a. C-kit positive BFU-E and CFU-E cells were sorted from FLEP cells based on expression of CD71, CD24a or both CD71 and CD24a. In all experiments the BFU-E fraction was the subset of c-kit^positive FLEP cells with the 10% lowest expression of CD71 and/or CD24a, while the CFU-E fraction was the subset with 20% highest expression of CD71 and/or CD24a. Sorted BFU-E and CFU-E populations were subjected to colony forming assays under two different conditions.
The potential of the sorted cells to form large BFU-E, small BFU-E, CFU-G/M/Mk, and CFU-GEMM colonies (±standard deviation) was determined by a second assay in methyl cellulose containing 10U Epo, 20 nM IL-3, 20 nM IL-6 and 50 nM SCF per mL, and was scored at day 8-9. […] To determine the effect of DMOG, colony assays of sorted BFU-E (CD71 and CD24a^10% low) cells were also performed in the presence of 333 μM DMOG.
as §1

[2] = Lin− fetal liver cells, EPO, SCF, IL-3, IL-6, 100 nM Dex
[3] = Lin−, CD32/16− cells, 100 nM Dex
[4] = Lin−, CD32/16−, Sca-1− cells, 100 nM Dex
[5] = Lin−, CD32/16−, Sca-1−, CD41− cells, 100 nM Dex
[6] = Lin−, CD32/16−, Sca-1−, CD41−, CD34− (FLEP cells), 100 nM Dex
[7] = CD71 10% low cells, SFELE with Dex, Day 3
[8] = Day 3 of culture, 100 nM Dex or 333 μM DMOG alone
[9] = CD24a 20% high cells, 100 nM Dex
[10] = CD71 20% high cells, 100 nM Dex
[11] = CD71 and CD24a 20% high cells (n = 1), line marked +
[12] = sorted CD71 20% high cells, with Dex

## C[C@@H]1C[C@H]2[C@@H]3CCC4=CC(=O)C=C[C@]4(C)[C@@]3(F)[C@@H](O)C[C@]2(C)[C@@]1(O)C(=O)CO [Dex, dexamethasone]
[1]; [2]
  CFU-G/M/Meg colonies, scored day 8-9: 25 (±5) colonies per 1000 plated cells
  GEMM colonies, scored day 8-9: 7 (±4) colonies per 1000 plated cells
  early BFU-E colonies, scored day 8-9: 39 (±12) colonies per 1000 plated cells
  late BFU-E colonies, scored day 8-9: 53 (±13) colonies per 1000 plated cells
[1]; Lin− fetal liver cells, methylcellulose 10U EPO/mL, 100 nM Dex
  CFU-E colonies, scored day 3: 472 (±79) colonies per 1000 plated cells
[1]; [3]
  CFU-G/M/Meg colonies, scored day 8-9: 17 (±10) colonies per 1000 plated cells
  GEMM colonies, scored day 8-9: 5 (±2) colonies per 1000 plated cells
  early BFU-E colonies, scored day 8-9: 37 (±12) colonies per 1000 plated cells
  late BFU-E colonies, scored day 8-9: 69 (±14) colonies per 1000 plated cells
[1]; Lin−, CD32/16− fetal liver cells, 10U EPO/mL, 100 nM Dex
  CFU-E colonies, scored day 3: 560 (±245) colonies per 1000 plated cells
[1]; [4]
  CFU-G/M/Meg colonies, scored day 8-9: 7 (±3) colonies per 1000 plated cells
  GEMM colonies, scored day 8-9: 0.2 (±0.3) colonies per 1000 plated cells
  early BFU-E colonies, scored day 8-9: 24 (±5) colonies per 1000 plated cells
  late BFU-E colonies, scored day 8-9: 110 (±10) colonies per 1000 plated cells
[1]; [5]
  CFU-G/M/Meg colonies, scored day 8-9: 9 (±12) colonies per 1000 plated cells
  GEMM colonies, scored day 8-9: 0.3 (±0.4) colonies per 1000 plated cells
  early BFU-E colonies, scored day 8-9: 10 (±4) colonies per 1000 plated cells
  late BFU-E colonies, scored day 8-9: 142 (±77) colonies per 1000 plated cells
[1]; [6]
  CFU-G/M/Meg colonies, scored day 8-9: 4 (±6) colonies per 1000 plated cells
  GEMM colonies, scored day 8-9: 0.3 (±0.5) colonies per 1000 plated cells
  early BFU-E colonies, scored day 8-9: 23 (±17) colonies per 1000 plated cells
  late BFU-E colonies, scored day 8-9: 141 (±84) colonies per 1000 plated cells
BFU-E cells; day 0 (before culture)
  Total colony numbers from 1,000 "BFU-E" cells: CFU-E 1 cluster: 30 (±11)
  Total colony numbers from 1,000 "BFU-E" cells: large BFU-E >20 clusters: 423 (±31)
  Total colony numbers from 1,000 "BFU-E" cells: small BFU-E 5-20 clusters: 262 (±64)
BFU-E cells; day 1
  Total colony numbers from 1,000 "BFU-E" cells: CFU-E 1 cluster: 424 (±271)
  Total colony numbers from 1,000 "BFU-E" cells: large BFU-E >20 clusters: 463 (±61)
  Total colony numbers from 1,000 "BFU-E" cells: small BFU-E 5-20 clusters: 1,766 (±695)
BFU-E cells; day 2
  Total colony numbers from 1,000 "BFU-E" cells: CFU-E 1 cluster: 11,468 (±1,088)
  Total colony numbers from 1,000 "BFU-E" cells: large BFU-E >20 clusters: 482 (±110)
  Total colony numbers from 1,000 "BFU-E" cells: small BFU-E 5-20 clusters: 5,771 (±1,625)
BFU-E cells; day 3
  Total colony numbers from 1,000 "BFU-E" cells: CFU-E 1 cluster: 60,699 (±22,369)
  Total colony numbers from 1,000 "BFU-E" cells: large BFU-E >20 clusters: 400 (±108)
  Total colony numbers from 1,000 "BFU-E" cells: small BFU-E 5-20 clusters: 8,334 (±2,489)
BFU-E cells; day 4
  Total colony numbers from 1,000 "BFU-E" cells: CFU-E 1 cluster: 138,600 (±24,546)
BFU-E cells; day 5
  Total colony numbers from 1,000 "BFU-E" cells: CFU-E 1 cluster: 261,550 (±98,160)
  Total colony numbers from 1,000 "BFU-E" cells: large BFU-E >20 clusters: 0
  Total colony numbers from 1,000 "BFU-E" cells: small BFU-E 5-20 clusters: 10,271 (±3,344)
BFU-E cells; day 6
  Total colony numbers from 1,000 "BFU-E" cells: CFU-E 1 cluster: 249,160 (±55,172)
BFU-E cells; day 7 (performed twice)
  Total colony numbers from 1,000 "BFU-E" cells: CFU-E 1 cluster: 176,000 (±15,556)
BFU-E cells; day 8 (performed twice)
  Total colony numbers from 1,000 "BFU-E" cells: CFU-E 1 cluster: 66,000 (±56,003)
BFU-E cells; 0 h (before culture)
  Total colony numbers from 1000 BFU-E cells: Large BFU-E: 241 (±79)
  Total colony numbers from 1000 BFU-E cells: Single CFU-E: 73 (±26)
  Total colony numbers from 1000 BFU-E cells: Small BFU-E: 277 (±89)
BFU-E cells; 24 h
  Total colony numbers from 1000 BFU-E cells: Large BFU-E: 181 (±132)
  Total colony numbers from 1000 BFU-E cells: Single CFU-E: 1,164 (±593)
  Total colony numbers from 1000 BFU-E cells: Small BFU-E: 1,568 (±604)
BFU-E cells; 48 h
  Total colony numbers from 1000 BFU-E cells: Large BFU-E: 130 (±53)
  Total colony numbers from 1000 BFU-E cells: Single CFU-E: 25,342 (±5,714)
  Total colony numbers from 1000 BFU-E cells: Small BFU-E: 6,730 (±515)
BFU-E cells; 72 h
  Total colony numbers from 1000 BFU-E cells: Large BFU-E: 150 (±58)
  Total colony numbers from 1000 BFU-E cells: Single CFU-E: 122,413 (±14,086)
  Total colony numbers from 1000 BFU-E cells: Small BFU-E: 15,350 (±3,838)
BFU-E cells; 120 h
  Total colony numbers from 1000 BFU-E cells: Single CFU-E: 904,050 (±434,778)
BFU-E cells; CD71 10% low cells, SFELE with Dex, Day 2
  Late BFU-Es per initial sorted BFU-E cell: 67
BFU-E cells; [7]
  CFU-Es formed per BFU-E: 122
  Late BFU-Es per initial sorted BFU-E cell: 153
BFU-E cells; [8]
  BFU-Es per plated BFU-E: 8.7
  CFU-Es per plated BFU-E: 51
BFU-E cells; cultures with Dex
  Increase of number of CFU-E cells between Days 3 and 5: 7.3 fold
CFU-E cells; [9]
  CFU-G/M/Meg colonies: 0.3 (±0.3) colonies per 1000 plated cells
  GEMM colonies: 0 colonies per 1000 plated cells
  large BFU-E colonies: 0.4 (±2) colonies per 1000 plated cells
  small BFU-E colonies: 15 (±2) colonies per 1000 plated cells
CFU-E cells; [10]
  CFU-E colonies: 565 (±120) colonies per 1000 plated cells
  CFU-G/M/Meg colonies: 0 colonies per 1000 plated cells
  GEMM colonies: 0 colonies per 1000 plated cells
  large BFU-E colonies: 0 colonies per 1000 plated cells
  small BFU-E colonies: 17 (±31) colonies per 1000 plated cells
CFU-E cells; [11]
  CFU-E colonies: 526 colonies per 1000 plated cells
  CFU-G/M/Meg colonies: 0 colonies per 1000 plated cells
  GEMM colonies: 0 colonies per 1000 plated cells
  large BFU-E colonies: 1 colonies per 1000 plated cells
  small BFU-E colonies: 29 colonies per 1000 plated cells
CFU-E cells; [12]
  Cells forming early BFU-E-derived colonies: 0%
  Cells forming late BFU-E-derived colonies: 1.7%
  Cells forming single-CFU-E colonies: 57%
